Laboratory results as given in US6545131B1, “Tissue specific prodrug” (priority 1997, dated 2003).
Starred links: 1 amine or outer side, 2 acyl side, 3 side chain; linkers in the order of their positions; H or OH if unused. Residues, ends and D or L forms follow the SMILES beside them. *: point of attachment. AMC = Cc1cc(=O)oc2cc(N*)ccc12; Morpholide = C1CN(*)CCO1; CO = O=C([*:1])[*:2]

Assays:
TSU-Pr1 cells = assay: Clonogenic survival of TSU-Pr1 cells after 72 hours exposure to TG analogs; format: cell-based, human; conditions: TSU-Pr1, 72 hours exposure; mean (n=5) ± standard error; read-out: LC50 (concentration needed to kill 50% of clonogenic cells)
Experimental: The primary amine-containing thapsigargin analogs of the invention have non-specific toxicity toward cells. This toxicity is measured as the concentration of analog needed to kill 50% of clonogenic cells (LC50). The LC50 of the analogs of the invention is desirably at most 20 μM, preferably at most 5 μM, and more preferably at most 500 nM of analog.
Percentage clonogenic survival of TSU-Pr1 (2×10^5 cells) following 72 hours of exposure to varying concentrations of TG analogs was performed as described in Martikainen et al. Cancer Res., 51, 4693-4700 (1991).
(§1) The IC50 results are mean (n=3)±standard error. The LC50 results are mean (n=5)±standard error. The entry “ND” stands for “not determined”. Clonogenic survival not determined above 10 μM for dBTG. Analogs with −boc have a t-butoxycarbonyl (boc) protected amino group.
The androgen responsive PSA-producing LNCaP and androgen independent PSA non-producing TSU-Pr1 are human prostate cancer lines were obtained from ATCC (Rockville, Md.) and maintained by serial passage in RPMI 1640 media containing 10% fetal calf serum with 100 units/ml penicillin G, and 100 units/ml streptomycin sulfate (antibiotics from M.A. Bioproducts, Walkerville, Md.) as standard media in 5% CO2/95% air at 37° C. The origins and characteristics of the LNCaP and TSU-Pr1 cell lines are described in Horoszewicz, et al., Cancer Res., 43:1809-1818, (1980)and Iizumi, et al., J. Urol, 137: 1304-1306, (1987).

[1] = target: T1, endoplasmic reticulum Ca2+-ATPase (SERCA), SR vesicles from rabbit skeletal muscle (Oryctolagus cuniculus, UniProt P04191); assay: SERCA inhibition: 45Ca2+ uptake to sarcoplasmic reticulum vesicles; format: biochemical; conditions: mean (n=3) ± standard error; 5 μg/ml SR protein, free Ca2+ 100 nM, 4 min uptake; read-out: IC50 (50% inhibition of 45Ca2+ uptake to SR vesicles)
T1 construct: sarcoplasmic reticulum (SR) vesicles prepared from rabbit skeletal muscle; from tissue; host or cells: rabbit skeletal muscle sarcoplasmic reticulum vesicles
T1 sequence (P04191 1-994 isoform P04191-2): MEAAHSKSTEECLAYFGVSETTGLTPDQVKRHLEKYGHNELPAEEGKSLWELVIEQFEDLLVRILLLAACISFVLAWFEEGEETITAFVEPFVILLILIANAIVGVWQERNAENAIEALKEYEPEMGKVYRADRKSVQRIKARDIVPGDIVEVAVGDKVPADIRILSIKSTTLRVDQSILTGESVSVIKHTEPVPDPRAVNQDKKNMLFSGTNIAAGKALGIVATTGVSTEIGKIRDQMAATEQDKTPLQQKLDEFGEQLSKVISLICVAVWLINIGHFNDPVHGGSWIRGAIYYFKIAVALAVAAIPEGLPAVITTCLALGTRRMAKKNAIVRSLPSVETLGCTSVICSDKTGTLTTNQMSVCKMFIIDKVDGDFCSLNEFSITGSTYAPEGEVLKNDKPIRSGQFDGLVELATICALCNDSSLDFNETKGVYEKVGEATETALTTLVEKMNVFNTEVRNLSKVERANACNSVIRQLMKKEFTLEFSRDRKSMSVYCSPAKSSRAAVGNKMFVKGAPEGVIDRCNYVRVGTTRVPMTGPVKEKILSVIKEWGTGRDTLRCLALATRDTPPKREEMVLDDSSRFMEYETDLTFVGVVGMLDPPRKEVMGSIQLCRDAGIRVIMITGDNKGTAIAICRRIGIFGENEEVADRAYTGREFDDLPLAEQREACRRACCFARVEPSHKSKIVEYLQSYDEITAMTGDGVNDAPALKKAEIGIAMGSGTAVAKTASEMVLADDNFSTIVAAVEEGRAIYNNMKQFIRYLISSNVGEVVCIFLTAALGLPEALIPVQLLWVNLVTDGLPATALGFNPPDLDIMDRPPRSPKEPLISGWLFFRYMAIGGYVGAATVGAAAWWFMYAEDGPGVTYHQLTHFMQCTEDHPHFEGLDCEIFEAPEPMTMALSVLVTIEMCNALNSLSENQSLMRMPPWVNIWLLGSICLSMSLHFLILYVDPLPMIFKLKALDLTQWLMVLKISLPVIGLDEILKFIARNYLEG
Experimental: The primary amine-containing thapsigargin analogs of the invention have endoplasmic reticulum Ca^2+-ATPase inhibitory activity. This activity is measured as the concentration of analog needed to inhibit 50% of this ATPase (IC50). The IC50 of the analogs of the invention is desirably at most 500 nM, preferably at most 200 nM, and more preferably at most 50 nM of analog.
The inhibitory potency of thapsigargin and its analogs was determined as the concentration required to produce 50% inhibition (i.e. IC50) of ^45Ca^2+ uptake to sarcoplasmic reticulum (SR) vesicles prepared from rabbit skeletal muscle by the method of De Meis and Hasselbach (J. Biol. Chem., 246: 4759-4763, 1971). The ^45Ca^2+ uptake assay was as described previously (Christensen, et al., FEBS, 335: 345-348, 1993), with the following modifications: 5 μg/ml of SR protein was incubated at 25EC and free Ca^2+ adjusted to 100 nM using 4 min. uptake time. Under these conditions, Ca^2+ could proceed linearly with time for at least 8 minutes. Measurements of Ca^2+ within TSU cells was determined as described previously (Lin et al., The Prostate, 33:201-207, 1997).
as §1

[2] = Stability of PSA substrates in serum (AMC release); format: in vitro ADME; conditions: 0.2 mM substrate
Source text: (§2) PSA was purified from human seminal plasma as described in Christensson, et al. Eur. J. Biochem. 194:755-765, (1990). Plasmin, urokinase, tissue plasminogen activator (TPA), human plasma and porcine pancreatic kallikrein and a 1-antichymotrypsin were obtained from Calbiochem (San Diego, Calif.). All other proteases were obtained from Sigma Chemical Co. (St. Louis, Mo.). Mouse serum was obtained from East Acres Biologicals (South Bridge, Mass.). Goat and calf sera were obtained from Gibco BRL (Grand Island, N.Y.). Rat serum was obtained in-house from sacrificed animals. Human serum was obtained from volunteers.
(§3) Cleavage was studied by measuring fluorescence change secondary to AMC release. Fluorescence detection was carried out with a Fluoroskan II 96 well fluorometric plate reader (ICN Biomedicals, Costa Mesa, Calif.), with excitation wavelength 355 nm and emission wavelength 460 nm. Data were collected and analyzed using Deltasoft III software (Biometallics, Princeton, N.J.). All reactions were performed at room temperature by the addition of substrate and proteases into PSA buffer, described below, in a final volume of 200 μL. The results were determined from the initial linear increase of fluorescence and were expressed as the picomoles of AMC released per minute based upon comparison to a standard curve of the fluorescence of known amounts of AMC (i.e., fluorescence was linear form 20 to 300 picomoles of AMC). The data were analyzed by Lineweaver-Burke reciprocal plots to determine the Michaelis-Menten constant (i.e., Km) expressed as the amount of substrate needed to saturate half of the enzyme and the catalytic rate constant (i.e., kcat) expressed as the amount of substrate converted to product per time per amount of enzyme.
Because the prodrug can be given systemically via the blood, it is useful to determine the stability of the substrates in sera from a variety of species. The substrates and experimental details are found as described in Example 1.
The amino acid sequences expressed in one letter amino acid code represent the following amino acid sequences in the three letter amino acid code: EHSSKLQ (Glu-His-Ser-Ser-Lys-Leu-Gln; SEQ ID NO:10), QNKISYQ (Gln-Asn-Lys-Ile-Ser-Tyr-Gln; SEQ ID NO:11), ENKISYQ (Glu-Asn-Lys-Ile-Ser-Tyr-Gln; SEQ ID NO:12) and ATKSKQH (Ala-Thr-Lys-Ser-Lys-Gln-His; SEQ ID NO:13). Determinations listed in the table were carried out with substrates at 0.2 mM concentration in the PSA assay buffer (50 mM Tris/0.1M NaCl pH 7.8). AMC is 7-amino-4-methylcoumarin. The human serum used was 100% for each assay. The entry “UD” stands for “undetectable”, and means that not more than 0.01 picomole of substrate per minute was cleaved.

Trypsin = assay: Peptide-AMC cleavage by purified extracellular protease; format: biochemical; conditions: 0.2 mM substrate, PSA assay buffer pH 7.8
Experimental: (§4) The peptides discussed herein were custom synthesized by Enzyme Systems Products (Dublin, Calif.) and, after HPLC separation and purification to >95%, the molecular weights were confirmed by mass spectroscopy. All peptides had morpholinocarbonyl protecting the amino terminus and 7-amino-4-methylcoumarin (AMC) attached via an amide bond to the carboxyl group of the carboxy-terminal amino acid. Peptides were first dissolved in distilled water (5 mM) and then diluted into PSA assay buffer (50 mM Tris/0.1M NaCl pH 7.8). The glutamine-AMC peptide had the amino terminus and side chain amine unprotected and was obtained from Bachem (Torrance, Calif.).
as §2, §3
(§5) Each assay contains 200 picomoles of the particular protease and 0.2 mM concentration of the particular substrate (i.e., 40,000 picomoles/200 μL of assay volume). The amino acid sequences expressed in one letter amino acid code represent the following amino acid sequences in the three letter amino acid code: EHSSKLQ (Glu-His-Ser-Ser-Lys-Leu-Gln; SEQ ID NO:10), QNKISYQ (Gln-Asn-Lys-Ile-Ser-Tyr-Gln; SEQ ID NO:11), ENKISYQ (Glu-Asn-Lys-Ile-Ser-Tyr-Gln; SEQ ID NO:12), and ATKSKQH (Ala-Thr-Lys-Ser-Lys-Gln-His; SEQ ID NO:13). Determinations listed in the table were carried out with substrates at 0.2 mM concentration in the PSA assay buffer (50 mM Tris/0.1M NaCl pH 7.8). The entry “UD” stands for “undetectable” and means that at most, 0.1 pmole of substrate cleavage per minute per 200 pmole protease took place. Asterisks represent experiments not performed. Abbreviations are as follows: PSA (prostate specific antigen), Chymo (chymotrypsin), Urokin (urokinase), TPA (tissue plasminogen activator), Thromb (thrombin), Kallik (human kallikrein, hK1).

chymotrypsin = target: T2, chymotrypsin (Bos taurus, UniProt P00766); assay: as above; format: biochemical; conditions: 0.2 mM substrate, PSA assay buffer pH 7.8
T2 construct: purchased Sigma Chemical Co
Experimental: as §4, §2, §3, §5

urokinase = target: T3, urokinase (Homo sapiens, UniProt P00749); assay: as above; format: biochemical; conditions: 0.2 mM substrate, PSA assay buffer pH 7.8
T3 construct: purchased Calbiochem
Experimental: as §4, §2, §3, §5

human kallikrein, hK1 = assay: as above; format: biochemical; conditions: 0.2 mM substrate, PSA assay buffer pH 7.8
Experimental: as §4, §2, §3, §5

[3] = target: T4, tissue plasminogen activator (TPA) (Homo sapiens, UniProt P00750); assay: as above; format: biochemical; conditions: 0.2 mM substrate, PSA assay buffer pH 7.8
T4 construct: purchased Calbiochem
T4 sequence (P00750 36-562, species assumed): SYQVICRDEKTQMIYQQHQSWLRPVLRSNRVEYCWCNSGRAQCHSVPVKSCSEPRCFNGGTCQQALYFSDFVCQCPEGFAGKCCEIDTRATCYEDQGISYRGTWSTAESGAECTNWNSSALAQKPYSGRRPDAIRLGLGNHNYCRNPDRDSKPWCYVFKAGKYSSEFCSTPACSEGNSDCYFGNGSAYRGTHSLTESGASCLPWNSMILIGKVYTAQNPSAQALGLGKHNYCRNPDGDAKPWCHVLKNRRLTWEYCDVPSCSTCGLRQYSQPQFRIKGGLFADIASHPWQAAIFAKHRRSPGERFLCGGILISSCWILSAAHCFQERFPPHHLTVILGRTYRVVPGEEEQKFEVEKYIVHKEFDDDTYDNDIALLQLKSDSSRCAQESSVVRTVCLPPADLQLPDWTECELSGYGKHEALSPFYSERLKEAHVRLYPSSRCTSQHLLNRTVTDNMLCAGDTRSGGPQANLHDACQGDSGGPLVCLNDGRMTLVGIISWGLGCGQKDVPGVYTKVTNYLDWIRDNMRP
Experimental: as §4, §2, §3, §5

Elastase = assay: as above; format: biochemical; conditions: 0.2 mM substrate, PSA assay buffer pH 7.8
Experimental: as §4, §2, §3, §5

Plasmin = target: T5, Plasmin (Homo sapiens, UniProt P00747); assay: as above; format: biochemical; conditions: 0.2 mM substrate, PSA assay buffer pH 7.8
T5 construct: purchased Calbiochem
T5 sequence (P00747 581-810 limits assumed, species assumed): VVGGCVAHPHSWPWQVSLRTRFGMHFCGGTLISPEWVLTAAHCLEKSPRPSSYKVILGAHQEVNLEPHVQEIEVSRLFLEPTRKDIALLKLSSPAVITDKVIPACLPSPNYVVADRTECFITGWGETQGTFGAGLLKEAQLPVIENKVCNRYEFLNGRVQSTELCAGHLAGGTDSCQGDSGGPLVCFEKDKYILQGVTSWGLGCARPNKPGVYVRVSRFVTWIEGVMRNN
T5 sequence (P00747 97-580 partner limits assumed, species assumed): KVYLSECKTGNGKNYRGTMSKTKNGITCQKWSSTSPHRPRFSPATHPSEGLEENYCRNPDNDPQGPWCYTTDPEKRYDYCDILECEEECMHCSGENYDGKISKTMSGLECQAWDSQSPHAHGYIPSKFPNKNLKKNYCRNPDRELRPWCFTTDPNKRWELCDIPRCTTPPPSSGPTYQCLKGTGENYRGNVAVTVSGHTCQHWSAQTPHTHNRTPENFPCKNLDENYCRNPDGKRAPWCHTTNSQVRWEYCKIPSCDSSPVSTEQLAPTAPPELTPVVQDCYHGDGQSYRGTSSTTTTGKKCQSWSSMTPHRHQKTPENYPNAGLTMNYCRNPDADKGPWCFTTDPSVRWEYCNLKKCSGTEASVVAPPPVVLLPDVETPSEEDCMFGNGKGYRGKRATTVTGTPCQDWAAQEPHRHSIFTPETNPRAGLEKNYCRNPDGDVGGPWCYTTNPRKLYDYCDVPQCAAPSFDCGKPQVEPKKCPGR
Experimental: as §4, §2, §3, §5

thrombin = target: T6, thrombin (Homo sapiens, UniProt P00734); assay: as above; format: biochemical; conditions: 0.2 mM substrate, PSA assay buffer pH 7.8
T6 construct: purchased Sigma Chemical Co
Experimental: as §4, §2, §3, §5

[4] = target: T7, PSA (prostate specific antigen) (Homo sapiens, UniProt P07288); assay: Cleavage of AMC-labelled peptide substrates by purified PSA (fluorescence of released AMC; Lineweaver-Burke kinetics); format: biochemical
T7 construct: PSA was purified from human seminal plasma; from tissue; host or cells: human seminal plasma
T7 sequence (P07288 25-261): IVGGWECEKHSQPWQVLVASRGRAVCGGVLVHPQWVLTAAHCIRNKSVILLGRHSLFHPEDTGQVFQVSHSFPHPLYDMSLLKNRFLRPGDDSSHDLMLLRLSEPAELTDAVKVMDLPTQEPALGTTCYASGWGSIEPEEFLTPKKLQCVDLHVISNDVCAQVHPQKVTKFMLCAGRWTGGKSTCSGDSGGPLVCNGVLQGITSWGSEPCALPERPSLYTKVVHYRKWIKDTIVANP
Experimental: as §4, §2, §3, §5
The data in Table 2 are the results of kinetic experiments with the peptide substrates used in Example 1. Experimental details are found in Example 1.
The amino acid sequences expressed in one letter amino acid code represent the following amino acid sequences in the three letter amino acid code: EHSSKLQ (Glu-His-Ser-Ser-Lys-Leu-Gln; SEQ ID NO:10), HSSKLQ (His-Ser-Ser-Lys-Leu-Gln; SEQ ID NO:7), SKLQ (Ser-Lys-Leu-Gln; SEQ ID NO:1), and ATKSKQH (Ala-Thr-Lys-Ser-Lys-Gln-His; SEQ ID NO:13). […]

[5] = PSA substrate, PSA assay buffer pH 7.8, Lineweaver-Burke

Compound | CC50 (TSU-Pr1 cells) | IC50 [1] | picomles AMC released/minute: Calf [2] | picomles AMC released/minute: Fetal Calf [2] | picomles AMC released/minute: Goat [2] | picomles AMC released/minute: Mouse [2] | picomles AMC released/minute: Rat [2] | picomles AMC released/minute: Human ([2]; human serum 100%) | Picomoles of substrate cleaved/minute/200 pmoles of indicated protease: Trypsin (Trypsin) | Picomoles of substrate cleaved/minute/200 pmoles of indicated protease: Chymo (chymotrypsin) | Picomoles of substrate cleaved/minute/200 pmoles of indicated protease: Urokin (urokinase) | Picomoles of substrate cleaved/minute/200 pmoles of indicated protease: Kallik (human kallikrein, hK1) | Picomoles of substrate cleaved/minute/200 pmoles of indicated protease: TPA [3] | Picomoles of substrate cleaved/minute/200 pmoles of indicated protease: Elastase (Elastase) | Picomoles of substrate cleaved/minute/200 pmoles of indicated protease: Plasmin (Plasmin) | Picomoles of substrate cleaved/minute/200 pmoles of indicated protease: Thromb (thrombin) | Picomoles of substrate cleaved/minute/200 pmoles of indicated protease: PSA ([4]; 0.2 mM substrate, PSA assay buffer pH 7.8, room temperature) | Kcat [4, 5] | Km [4, 5]
CC=C(C)C(=O)OC1C(C)=C2C(C1OC(=O)CCCCCCC)C(C)(OC(C)=O)CC(OC(=O)C=Cc1ccc(N)cc1)C1(O)C2OC(=O)C1(C)O (stereo not shown) [ACT, 8-O-(4-aminocinnamoyl)-8-O-debutanoylthapsigargin] | 100 ± 6 nM | 18.7 ± 0.2 nM |  |  |  |  |  |  |  |  |  |  |  |  |  |  |  |  | 
Cc1cc(=O)oc2cc(NC(=O)[C@H](Cc3c[nH]cn3)NC(=O)[C@H](CCC(N)=O)NC(=O)[C@H](CCCCN)NC(=O)[C@H](CO)NC(=O)[C@H](CCCCN)NC(=O)[C@@H](NC(=O)[C@H](C)NC(=O)N3CCOCC3)[C@@H](C)O)ccc12 [ATKSKQH, Ala-Thr-Lys-Ser-Lys-Gln-His] ({Morpholide-CO}-ATKSKQH-{AMC}) |  |  | UD (not more than 0.01 picomole of substrate per minute was cleaved) | 1.19 picomoles/minute | 0.35 picomoles/minute | 0.60 picomoles/minute | 4.31 picomoles/minute | UD (not more than 0.01 picomole of substrate per minute was cleaved) | UD (at most, 0.1 pmole of substrate cleavage per minute per 200 pmole protease took place) | 38.8 picomoles/minute/200 pmoles pr | UD (at most, 0.1 pmole of substrate cleavage per minute per 200 pmole protease took place) | UD (at most, 0.1 pmole of substrate cleavage per minute per 200 pmole protease took place) | UD (at most, 0.1 pmole of substrate cleavage per minute per 200 pmole protease took place) | UD (at most, 0.1 pmole of substrate cleavage per minute per 200 pmole protease took place) | UD (at most, 0.1 pmole of substrate cleavage per minute per 200 pmole protease took place) | 0.2 picomoles/minute/200 pmoles pr | 16.0 picomoles/minute/200 pmoles pr | 0.0091 s⁻¹ | 310 µM
